# Laboratory results reported in patent EP4458804A1, “METHOD FOR PRODUCING AN OBJECT, PHENALEN-1-ONE COMPOUND AND USE THEREOF” (TriOptoTec GmbH, priority 2023, dated 2024).
# Legend:
# [1] = Leaching test A: screening immersion 24 h, UV-VIS of supernatant (Beispiel 10 A); format: physicochemical; parameters: Abs. nach Auswaschen: unit not given here; settings: for Berechneter Verlust in %: Rezeptur 1 nach Beispiel 1; for Abs. nach Auswaschen: Rezeptur 1 nach Beispiel 1, supernatant
# Experimental: Um das Auswaschen der verschiedenen Farbstoffe in den Kunststofffolien zu beurteilen, wurde ein Immersionstest in deionisiertem Wasser mit einem pH-Wert von (6 ± 1) (oder gegebenenfalls anderen Lösungsmitteln) und einer Wassertemperatur von (22 ± 3) °C für 24 Stunden durchgeführt.
# Dazu wurde ein Folienstück definierter Größe (3 cm x 3 cm) imprägniert (nach Rezeptur 1, Beispiel 1) und anschließend für 24 Stunden in eine definierte Menge deionisiertem Wasser (12,0 mL) gegeben und durch eine Schüttelplatte in Bewegung gehalten. Nach der angegeben Immersionszeit wurde die Folie entnommen und der Überschuss im UV-VIS Spektrometer vermessen, um die ausgewaschene Menge an Farbstoff zu bestimmen. Die Menge wird durch die definierte Größe der Folie und definierte Flüssigkeitsmenge auf einen Quadratzentimeter zurückgerechnet.
# Dieser Immersionstest diente dazu, das Auswaschverhalten verschiedener Farbstoffe aus verschiedenen Kunststofffolien zu beurteilen. Weiter sollte er dabei helfen, verschiedene Farbstoffklassen oder verschiedene Farbstoffderivate einer Farbstoffklasse bezüglich dieser Charakteristik miteinander zu vergleichen.
# Die zugeschnittenen Folien werden in einem geeigneten Behälter vollständig mit dem Prüfmedium (typischerweise deionisiertes Wasser) bedeckt. Anschließend wird der Behälter zugedeckt und auf die Schüttelplatte aufgebracht. Bei geringer Geschwindigkeit der Platte wird für 24 Stunden gewartet. Nach der Immersion wurden 3 mL des Überstandes durch Absorptionsspektroskopie vermessen.
# Die Auswertung erfolgte über das Verhältnis der max. Absorptionswerte einer reinen Farbstofflösung definierter Konzentration und des vermessenen Überstandes. Die Ergebnisse sind in Tabelle 50 dargestellt. Tabelle 50: Auswaschverhalten verschiedener Photokatalysatoren nach Immersionstest A
# [2] = Comparative examples 23-25: impregnation of unsuitable plastics or with a fluorescent dye, visual evaluation; format: physicochemical; settings: 0,2 mm starke Polycarbonatfolien; 60 min Einwirkzeit
# Experimental: Die Farbstoffkonzentration in der Imprägnierlösung betrug jeweils 1 mM bei Phenalen-1-on- und Curcuminderivaten, 0,1 mM bei Prophycenderivaten.
# Es wurden 0,2 mm starke Polycarbonatfolien eingesetzt und mit Imprägnierlösungen enthaltend die Photokatalysatoren F-24b, F-64a oder F-73 behandelt.
# Es wurden TPU Folien eingesetzt und mit einer Imprägnierlösung enthaltend den Farbstoff 2-Chloro-6-(3-hydroxypropylamino)-1-phenalenon (CAS 113722-81-9) behandelt.
# S. aureus = experiment: Bactericidal effect after leaching/washing stress B and C (Beispiel 18), modified ISO 22196; format: cell-based; settings: TPU film, Rezeptur 1, 1 mM
# Excerpt: Die Bestimmung der antimikrobiellen Aktivität erfolgte nach einer modifizierten Version der ISO 22196:2011-08 ("Messung von antibakterieller Aktivität auf Kunststoff- und anderen porenfreien Oberflächen", Ausgabedatum: 2011-08).
# Bei der Testdurchführung wurde ein dünner Flüssigkeitsfilm, in dem die Bakterien enthalten sind (1,25 x 10^4 /cm^2), direkt auf die Probenkörper (3 x 3 cm) aufgebracht. Direkt nach Beimpfung wurden von der Nullprobe die Bakterien von den Probenkörperoberflächen mittels Ultraschall und Vortexen abgelöst und die Keimzahl (KBE (engl. CFU), Kolonie-bildende Einheit) bestimmt (t0-Wert).
# Nach 4h wurden überlebende Bakterien von den Probenkörperoberflächen mittels Ultraschall und Vortexen abgelöst und die Keimzahl bestimmt (t4-Wert).
# Im Unterschied zu der in der ISO 22196:2011-08 beschreibenen Methode wurde das Inokulum nicht mit einer Folie abgedeckt und die Inkubationszeit wurde von 24 auf 4 Stunden reduziert. Weiterhin wurden die Probenkörper der Proben 3 und 4 mit Licht der Intensität 20mW/cm2 für 10min belichtet, um eine biozide Wirkung nach Bestrahlung mit elektromagnetischer Strahlung zu bestimmen.
# Um die Haltbarkeit des Photokatalysators innerhalb der Folie bzw. dessen Auswaschen gegen gängige Reinigungsmittel zu untersuchen, wurden damit Immersionstest in Wasser und 70% Isopropanol durchgeführt.
# Die Folien wurden anschließend mit dem unter B) und C) beschrieben Belastungsverfahren mit den in den Tabellen gezeigten Medien behandelt und in ihrer Wirksamkeit vor/nach Belastung verglichen.
# verschiedene Virusstämme = experiment: Antiviral activity of impregnated films following ISO 21702 with illumination (Beispiel 17); settings: TPU film, Rezeptur 1, 1 mM, light 20mW/cm^2 for 83 min
# [3] = Washability test C following DIN EN ISO 11998, 200 sponge cycles with disinfectant solution (Beispiel 10 C); format: physicochemical; settings: TPU, Rezeptur 1 nach Beispiel 2
# Experimental: Der Test wurde in Anlehnung an die DIN EN ISO 11998:2006-10 ("Beschichtungsstoffe - Bestimmung der Nassabriebbeständigkeit und der Reinigungsfähigkeit von Beschichtungen (ISO 11998:2006)"; Ausgabedatum: 2006-10) durchgeführt, um das Auswaschen der verschiedenen Farbstoffe in den Kunststofffolien nach mechanischer Belastung zu beurteilen.
# Hierzu wurden 200 Zyklen mit einem Anpressdruck von 135g angewendet. Es wurde ein Schwamm mit 4,0 mL Probelösung vorbereitet, die zu testende Folie eingespannt und der Schwamm aufgebracht. 200 Zyklen entsprachen dabei circa 5 min Kontaktzeit des Schwamms und der Oberfläche. Nach dem Test wurde die Folie entnommen und im UV-VIS Spektrometer vermessen, um die ausgewaschene Menge an Farbstoff zu bestimmen.
# Der jeweils gemessene Wert vor dem Test und nach Abschluss der 200 Zyklen wurde verglichen und daraus ein prozentualer Verlust ermittelt.
# Vorbereitet wurde die Folie nach Beispiel 2. Die zu verwendete Probelösung entsprach 5 Gew.-% Incidin Plus Lösung, bezogen auf das Gesamtgewicht der Probelösung.
# Incidin Pro, der Firma ECOLAB Deutschland GmbH (Monheim), ist ein flüssiges Konzentrat, das sich zur Reinigung und Desinfektion medizinischer Geräte und Flächen in Einrichtungen des Gesundheitswesens angewendet wird.
# Der Test ermittelt somit den nach wiederholtem flächigem Abwischen mit einem Desinfektionsmittel aus einer behandelten Oberfläche ausgetragenen Photokatalysator.
# [4] = Incorporation of photocatalysts into TPU films versus process time, absorption spectroscopy against blank film (Beispiele 7a-9b); format: physicochemical; settings: TPU Folie, Rezeptur 1; Beispiel 7b, Tabelle 41
# Experimental: Im nächsten Schritt wurde die Verwendbarkeit der verschiedene Photokatalysatorklassen, ausgewählt aus Phenalen-1-on-Derivaten, Curcumin-Derivaten und Porphycen-Derivaten, mit unterschiedlichen Eigenschaften - von neutral unpolar bis ionisch polar - auf Ihre Verwendbarkeit und Wirkung im Verfahren untersucht.
# Zur Beurteilung der optimalen Prozesszeit bei Einsatz der Photokatalysatoren, wurden TPU Folienstücke nach Beschreibung in Beispiel 4 zu je 1, 2, 5 und 10 min in den Imprägnierlösungen behandelt, gegebenenfalls auch 30 und 60 min bei undeutlichen Ergebnissen.
# Als Basisformulierung wurde Rezeptur 1 nach Beispiel 2 verwendet.
# Nach der angegebenen Prozesszeit wurden die Folie entnommen, mit Wasser gewaschen und für 1h bei 40°C getrocknet/abgelüftet.
# Die Folien wurden durch Absorptionsspektroskopie gegen ein Blank-Folienstück direkt vermessen, beim Maximum der Absorption des Photokatalysators. Dabei ergaben sich in Abhängigkeit der Prozesszeit folgende Werte, die in den Tabellen 40 bis
# [5] = medium 5% Neutralseife, plastic PVC
# [6] = medium 5% Neutralseife, plastic TPU
smiles,measurement,setting,value
CC(C)(O)c1cc[n+](CC2=Cc3cccc4cccc(c34)C2=O)cc1 [F-24b],Berechneter Verlust in %,[1]; [5],"3,8%"
same,Abs. nach Auswaschen,[1]; [5],"0,024"
same,Berechneter Verlust in %,[1]; [6],"10,7%"
same,Abs. nach Auswaschen,[1]; [6],"0,061"
same,Berechneter Verlust in %,"[1]; medium 70% IPA, plastic PVC","25,4%"
same,Abs. nach Auswaschen,"[1]; medium 70% IPA, plastic PVC","0,160"
same,Berechneter Verlust in %,"[1]; medium 70% IPA, plastic TPU","34,0%"
same,Abs. nach Auswaschen,"[1]; medium 70% IPA, plastic TPU","0,194"
same,Berechneter Verlust in %,"[1]; medium Wasser, plastic EVA","2,6%"
same,Abs. nach Auswaschen,"[1]; medium Wasser, plastic EVA","0,015"
same,Berechneter Verlust in %,"[1]; medium Wasser, plastic SEPS","4,7%"
same,Abs. nach Auswaschen,"[1]; medium Wasser, plastic SEPS","0,027"
same,Berechneter Verlust in %,"[1]; medium Wasser, plastic TPU","1,4%"
same,Abs. nach Auswaschen,"[1]; medium Wasser, plastic TPU","0,008"
same,Verfärbung,[2],keine Verfärbung
same,Log10 Reduktion Hauptprobe,"S. aureus; After Auswaschen nach DIN EN 16105, procedure B), Wasser (dest.)","1,9 ± 0,5 log10"
same,Log10 Reduktion Hauptprobe,"S. aureus; After Screening Test - Immersion, procedure A), 70% Isopropanol","1,9 ± 0,6 log10"
same,Log10 Reduktion Hauptprobe,"S. aureus; After Screening Test - Immersion, procedure A), Wasser (dest.)","3,3 ± 0,7 log10"
same,Log10 Reduktion Hauptprobe,"S. aureus; After Washability nach DIN EN ISO 11998, procedure C), cleaner Neutraldesinfizierend","4,5 ± 0,6 log10"
same,Log10 Reduktion Hauptprobe,"S. aureus; After Washability nach DIN EN ISO 11998, procedure C), cleaner Sauer-oxidierend","4,8 ± 0,3 log10"
same,Log10 Reduktion Hauptprobe,verschiedene Virusstämme; Virus: Influenza A Virus (H1N1),"2,5 ± 0,5 log10"
same,Log10 Reduktion Hauptprobe,verschiedene Virusstämme; Virus: Modified Vaccinia Virus Ankara (MVA),"4,6 ± 0,6 log10"
same,Abs. vor Auswaschen,"[3]; Washability test C (DIN EN ISO 11998), film before test","0,121"
same,Berechneter Verlust in %,"[3]; Washability test C, 200 sponge cycles, 5 Gew.-% Incidin Plus Lösung","1,7%"
same,Abs. nach Auswaschen,"[3]; Washability test C, film after 200 sponge cycles, 135g, 5 Gew.-% Incidin Plus Lösung","0,119"
same,Abs. 1 min,[4],"0,185"
same,Abs. 2 min,[4],"0,198"
same,Abs. 5 min,[4],"0,257"
same,Abs. 10 min,[4],"0,456"
